Legend:
[1] = system: Trypanosoma brucei brucei; assay: microbe, parasite or virus in culture; assay type: functional, organism-based, STIB 795
Description: DNDI: Inhibition of Human African Trypanosomiasis (HAT), STIB 795, in vitro

[2] = DNDI: Cytotoxicity against human MRC-5 lung fibroblast cells.; conditions: IC50

| Structure (SMILES) | IC50 ([1]; Trypanosoma brucei, STIB 795) | IC50 [2] | IC50 [1] |
| --- | --- | --- | --- |
| CCN1C=CC(=Cc2ccc3cc(C)ccc3[n+]2C)C=C1 | 0.538 µM | > 20.8 µM | – |
| Cc1c2[nH]c3ccccc3c2c2c([n+]1C)CC(C)(C)CC2 | 8.67 µM | > 41.7 µM | – |
| O=C1/C(=C/c2ccncc2)CCC/C1=C\c1ccncc1 | 0.03 µM | 1.94 µM | – |
| COCCN1CSC(=S)N(Cc2ccco2)C1 | 4.84 µM | > 4.17 µM | – |
| Cc1ccccc1C(=O)O/N=C(\N)Cc1cccs1 | 0.414 µM | > 20.8 µM | – |
| N=C(NOC(=O)N1CCOCC1)c1ccccc1 | 1.19 µM | > 4.17 µM | – |
| COc1ccc(C(=N)NOC(=O)c2ccco2)cc1 | 3.69 µM | > 20.8 µM | – |
| CCc1ccc2nc3nc(C)cc(C)c3c(N)c2c1 | 4.86 µM | > 20.8 µM | – |
| N=C(NOC(=O)CC1CCCCC1)c1cccnc1 | 5.36 µM | > 41.7 µM | – |
| Cc1ccccc1C(=O)O/N=C(\N)c1ccccc1 | 0.881 µM | > 20.8 µM | – |
| Cc1cccc(C(=N)NOC(=O)c2ccoc2C)c1 | 0.338 µM | > 10.4 µM | – |
| COc1ccc(C(=N)NOC(=O)c2cccs2)cc1 | 1.84 µM | > 41.7 µM | – |
| Cc1ccc(O)c(NN=C2C(=O)CC(C)(C)CC2=O)c1 | 5.09 µM | > 4.17 µM | – |
| Oc1c(Cl)cc(CN2CCOCC2)c2cccnc12 | 0.956 µM | > 20.8 µM | 1.12 µM |
| CNCc1ccccc1Sc1cccc2ccccc12 | 4.82 µM | > 41.7 µM | – |
| c1ccc2c(c1)CC1CNCc3cccc(c31)S2 (stereo not drawn) | 5.59 µM | > 41.7 µM | – |
| c1ccc(NN=C(c2ccccn2)c2ccccn2)nc1 | 0.468 µM | > 1.04 µM | – |
| COC(=O)N/N=C\c1ccc(-c2ccccc2Cl)o1 | 1.95 µM | > 41.7 µM | – |
| COc1cc(OC)c2nc(C)c3c(c2c1)CNC3 | 2.5 µM | 7.02 µM | – |
| Cc1ccc(O)c(NC(=O)c2nc(N)n(C)n2)c1 | 0.196 µM | 1.84 µM | – |
| CCC1CO/C(=C2\Sc3ccccc3C2=O)N1 (stereo not drawn) | 5.08 µM | > 20.8 µM | – |

| Structure (SMILES) | IC50 ([1]; Trypanosoma brucei, STIB 795) | IC50 [2] | IC50 [1] |
| --- | --- | --- | --- |
| CN(C)C(=S)N/N=C1\Cc2ccccc2C1=O | 0.989 µM | > 20.8 µM | – |
| Oc1c(/N=N/c2ccccn2)ccc2ccccc12 | 0.718 µM | > 20.8 µM | – |
| O=C1c2ccccc2C(=O)N1/N=C/c1ccccc1 | 0.727 µM | > 41.7 µM | – |
| CCn1ccnc1-c1cccc(-c2ccccn2)n1 | 0.425 µM | > 1.04 µM | – |
| CC[N+]1=C(/C=C/N(C)C)c2cccc3cccc1c23 | 3.41 µM | > 20.8 µM | – |
| O/N=C1\C=Cc2[nH]c(-c3ccccc3)cc2\C1=N/O | 0.254 µM | 0.721 µM | – |
| Cc1cccc(C(=O)O/N=C(\N)c2ccncc2)c1 | 5.42 µM | > 41.7 µM | – |
| Cc1ccc2[nH]c3c(c2c1)CCC/C3=N\N=C(N)N | 8.57 µM | > 20.8 µM | – |
| CC(=O)C(C(C)=O)C1=CC(=O)C(=O)c2ccccc21 | 7.06 µM | > 20.8 µM | – |
| COc1ccc(C2=C(C)C(=O)C(C)=C(C)C2=O)cc1 | 5.55 µM | > 20.8 µM | – |
| S=c1c(Cl)c(Cl)cnn1-c1ccccc1 | 6.17 µM | > 20.8 µM | – |
| CCN(CC)c1ccc(/C=N/n2cnnc2)c(O)c1 | 1.92 µM | > 41.7 µM | – |
| CS(=O)(=O)/C=C(\c1ccccc1)c1ccncc1 | 0.641 µM | > 20.8 µM | – |
| CCc1cc2c(cc1C(C)N)C(C)(C)CCC2(C)C (stereo not drawn) | 5 µM | > 20.8 µM | – |
| CC(C)(C)C(N)CCc1ccc(Cl)cc1Cl (stereo not drawn) | 5.49 µM | > 41.7 µM | – |
| COC(=O)c1ccccc1N/N=C1\C(=N)ON=C1N | 0.41 µM | > 41.7 µM | – |
| Cc1ccc([S@+]([O-])/C(F)=C\c2ccccn2)cc1 | 0.903 µM | 5.57 µM | – |
| Cc1ccc2c(c1)C(=O)C(CN1CCOCC1)CO2 (stereo not drawn) | 2.17 µM | > 20.8 µM | – |
| Oc1c(Cl)cc(CN2CCCC2)c2cccnc12 | 4.32 µM | > 4.17 µM | – |
| O=c1nc2oc3ccc4ccccc4c3cc-2c(=O)[nH]1 | 5.06 µM | > 20.8 µM | – |
| CC1(C)CCC[C@]2(C)C=C(C3OCCO3)C(=O)C[C@@H]12 | 5.21 µM | > 41.7 µM | – |

| Structure (SMILES) | IC50 ([1]; Trypanosoma brucei, STIB 795) | IC50 [2] | IC50 [1] |
| --- | --- | --- | --- |
| O=C1c2ccccc2C(=O)c2c1ccc1c(=O)o[nH]c21 | 4.64 µM | > 41.7 µM | – |
| Cc1cccc(NCc2ccc(O)c3ncccc23)n1 | 4.89 µM | > 20.8 µM | – |
| CN(C)c1ccc(/C=C\C=C\c2ccc[n+](C)c2)cc1 | 0.354 µM | > 20.8 µM | – |
| Cc1cc(C)nc(Nc2nc(N)c3ccccc3n2)n1 | 3.79 µM | 6.09 µM | – |
| CCN(Cc1ccccc1)S(=O)(=O)c1ncn[nH]1 | 3.38 µM | > 41.7 µM | – |
| CCCCCc1ccc(-c2ccc(C(=N)N)cc2)cc1 | 5.73 µM | 15.5 µM | – |
| COc1ccc(Nc2nc3ccccc3c(=O)o2)cc1 | 0.435 µM | > 20.8 µM | – |
| Cc1ccc(C23CC4CC(CC(CN)(C4)C2)C3)cc1C | 0.91 µM | > 20.8 µM | – |
| C/C(Cl)=C\CN1C(=O)C(=O)c2cc(Cl)ccc21 | 4.87 µM | > 41.7 µM | – |
| O=C(Cc1cc(O)[nH]n1)N/N=C/C=C/c1ccccc1 | 5.31 µM | > 41.7 µM | – |
| CCC(C)NC(=O)c1nc(-c2ccccc2)cnc1N (stereo not drawn) | 0.426 µM | > 41.7 µM | – |
| CC1CS/C(=N/c2ccc(Br)cc2)N1 (stereo not drawn) | 6.65 µM | > 41.7 µM | – |
| C/C(=N\NC(=O)Cc1ccc(F)cc1)c1ccccn1 | 5.17 µM | > 4.17 µM | – |
| O=C1CC(n2nnnc2-c2ccccc2)C2COC1O2 (stereo not drawn) | 2.18 µM | > 20.8 µM | – |
| CN(C)c1ccc(C2=Nc3cccc4cccc2c34)cc1 | 0.434 µM | > 41.7 µM | – |
| COc1ccc(CC(C)N)c(Sc2ccccc2)c1 (stereo not drawn) | 5.42 µM | > 41.7 µM | – |
| c1coc(CNc2c3ccccc3nc3ccccc23)c1 | 2.73 µM | > 4.17 µM | – |
| C[N+](CC#CC1CC1)(C1CCCCC1)C1CCCCC1 | 8.85 µM | > 41.7 µM | – |
| Oc1ccc(Cn2cnc3ccccc32)c2cccnc12 | 1.55 µM | > 4.17 µM | – |
| Cc1ccc(OCCCCCN2CCNCC2)c(C)c1 | 5.38 µM | > 41.7 µM | – |
| CN(C)CCCNCCCc1ccc(C(C)(C)C)cc1 | 0.079 µM | 8.02 µM | – |

| Structure (SMILES) | IC50 ([1]; Trypanosoma brucei, STIB 795) | IC50 [2] | IC50 [1] |
| --- | --- | --- | --- |
| COC(=O)c1[nH]cc2c3cccnc3c3ncccc3c12 | 0.064 µM | 0.59 µM | – |
| Cc1ccc(/N=N/c2ccc(O)c3ncccc23)cc1C | 4.92 µM | > 20.8 µM | – |
| CC[n+]1ccccc1/C=C1\C=Cc2cc(C)ccc2N1C | 0.911 µM | > 20.8 µM | – |
| N=C(N)n1nc(-c2ccccc2)cc1-c1ccccc1O | 5.07 µM | > 20.8 µM | – |
| Cc1nn2c3c(nnc2c1-c1ccccc1)C(=O)CCC3 | 0.697 µM | 18.1 µM | – |
| O=C(Nc1cccc(Cl)c1)O/N=C1\CC2CCC1C2 (stereo not drawn) | 0.857 µM | > 20.8 µM | – |
| CN(C)CCn1c2ccccc2c2cnc(N)c(C#N)c21 | 3.62 µM | > 4.17 µM | – |
| Cc1cc(N2CCN(C)CC2)c2[nH]c3ccccc3c2c1 | 0.748 µM | 7.26 µM | – |
| Cc1nnc(N/N=C/c2cc(Cl)ccc2O)nc1O | 3.65 µM | 4.74 µM | – |
| O=C(N/N=C/c1c(O)ccc2ccccc12)c1cc[nH]n1 | 2.68 µM | > 20.8 µM | – |
| Cc1ccc(/C(=C\CCNCCN)c2ccccc2)cc1 | 0.269 µM | > 20.8 µM | – |
| CCCCc1c(C)[nH]n(-c2nc3ccccc3[nH]2)c1=O | 0.895 µM | > 1.04 µM | – |
| N#Cc1ccccc1N=NNc1ccccc1C#N | 5.08 µM | > 41.7 µM | – |
| CN(C)CCCNc1c2c(nc3ccccc13)CCC2 | 1.82 µM | 5.76 µM | – |
| N#Cc1c(N)nc2[nH]nc(N)c2c1-c1ccccc1 | 3.04 µM | > 20.8 µM | – |
| CCN1/C(=C/c2cccc[n+]2C)C=Cc2cc(C)ccc21 | 0.909 µM | > 20.8 µM | – |
| O=C1c2ccccc2C(=O)c2c1ccc1nonc21 | 0.394 µM | > 20.8 µM | – |
| COc1cc2nc(N(C)C)nc(N)c2cc1OC | 5.21 µM | > 20.8 µM | – |
